# Values quoted from earlier work as cited in paper PMC5752104 (Bioorganic & medicinal chemistry, 2017).
# What was measured:
# GPR55 = GPR55 (Homo sapiens, UniProt Q9Y2T6)
# Chain of GPR55 (Q9Y2T6 whole entry): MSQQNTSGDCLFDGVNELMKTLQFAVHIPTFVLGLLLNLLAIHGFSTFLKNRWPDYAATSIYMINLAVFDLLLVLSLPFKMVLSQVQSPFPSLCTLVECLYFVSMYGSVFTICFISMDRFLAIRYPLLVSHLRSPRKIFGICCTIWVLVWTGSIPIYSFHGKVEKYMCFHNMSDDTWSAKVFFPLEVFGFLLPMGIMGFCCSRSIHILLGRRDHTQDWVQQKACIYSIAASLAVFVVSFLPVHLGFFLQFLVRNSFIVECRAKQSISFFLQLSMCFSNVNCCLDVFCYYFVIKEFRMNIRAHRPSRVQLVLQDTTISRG
# Chain of GPR55 (P32121 whole entry partner): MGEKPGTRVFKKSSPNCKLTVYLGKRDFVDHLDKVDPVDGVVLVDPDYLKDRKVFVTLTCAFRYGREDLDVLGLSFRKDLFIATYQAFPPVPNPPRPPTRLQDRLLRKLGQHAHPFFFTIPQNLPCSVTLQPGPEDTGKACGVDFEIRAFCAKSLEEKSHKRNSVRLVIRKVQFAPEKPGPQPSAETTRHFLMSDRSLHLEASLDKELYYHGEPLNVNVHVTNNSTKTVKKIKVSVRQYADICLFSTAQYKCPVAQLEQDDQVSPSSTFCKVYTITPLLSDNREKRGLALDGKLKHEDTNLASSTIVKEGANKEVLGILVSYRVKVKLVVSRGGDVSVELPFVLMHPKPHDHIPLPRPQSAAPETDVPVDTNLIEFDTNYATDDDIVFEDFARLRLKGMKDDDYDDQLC
Compound,activity at CB1 (CB1),activity at CB2 (CB2),activity at GPR35 (GPR35),effect at GPR55 (GPR55)
"COc1ccccc1/C=C/C(=O)NC(=S)Nc1ccc(S(=O)(=O)N(C)c2ccccc2)cc1 [6fv, (E)-3-(2-Methoxyphenyl)-N-((4-(N-methyl-N-phenylsulfamoyl)phenyl)carbamothioyl)acrylamide]",no activity,no activity,no activity,–
Cc1c(C(=O)NN2CCCCC2)nn(-c2ccc(Cl)cc2Cl)c1-c1ccc(I)cc1 [AM251],–,–,–,strongly activates GPR55
CCCCCCC(C)(C)c1ccc([C@@H]2C[C@H](O)CC[C@H]2CCCO)c(O)c1 [CP55940],–,–,–,acts as an antagonist
